Reference: paper PMC10813753 (Biology, 2024)
Structures can show the parent of a compound that is named as a salt. Where two headings read alike, the source gives them in different places.

Tests used:
[1] = system: Tel22 (DNA, G4) AGGGTTAGGGTTAGGGTTAGGG; assay: circular dichroism titration; details: 10 mM K+, 90 mM Li+; 10 mM Li-cacodylate pH 7.3, 25 °C; 4 μM DNA, DNA/ligand 1:1 to 1:5
[2] = system: Tel22 (DNA, G4) AGGGTTAGGGTTAGGGTTAGGG; assay: equilibrium dialysis (non-competition); details: 100 mM KCl; 10 mM potassium phosphate pH 7.2, 22 °C; 2 μM ligand, 75 μM tetrads; apparent; per tetrad; per base
[3] = system: ds17 (DNA, duplex) GGGTTACTACGAACTGG/CCAGTTCGTAGTAACCC; assay: equilibrium dialysis (non-competition); details: 100 mM KCl, 10 mM potassium phosphate pH 7.2, 22 °C, 2 μM ligand, 75 μM base pairs, apparent, per base pair
[4] = system: F10T (DNA, hairpin, Sp18 (hexaethylene glycol type spacer) between 10 and 11) TATAGCTATATAGCTATA; assay: FRET melting (renaturing curve); details: 100 mM LiCl; 10 mM Li-cacodylate; 0.2 μM DNA; 10 μM compound
[5] = system: F21T (DNA, G4) GGGTTAGGGTTAGGGTTAGGG; assay: FRET melting (renaturing curve); details: 10 mM K+, 90 mM Li+; 10 mM Li-cacodylate pH 7.3; 0.2 μM DNA; 10 μM compound
[6] = system: DU145 cells (prostate tumor); assay: MTT viability assay DU145; type: cell-based, human
Protocol: (§1) A panel of five tumor cell lines and two normal cell lines was used to preliminarily test the cytotoxicity of compounds 1–4, and the experiments were conducted as previously reported. All human cell lines were acquired from American Type Culture Collection (ATCC): tumor PC-3 and DU145 (prostate), HeLa (cervix), MCF7 (breast) and HT29 (colorectal) and healthy HFF-1 (fibroblast) and RWPE-1 (prostate). The cell catalogue reference and culture media used in the experiments were CRL-1435^TM, RPMI (PC-3), HTB-81™, RPMI (DU145), CCL-2^TM, DMEM (HeLa), HTB-22^TM, DMEM (MCF-7), HTB-38^TM, modified McCoy’s 5a medium, Catalogue No. 30-2007 (HT29), SCRC-1041^TM, DMEM (HFF-1) and CRL-11609^TM, Keratinocyte-SFM (RWPE-1). Culture media were purchased from Merck: RPMI-1640, DMEM + 10% FBS (Fetal Bovine Serum) + […] (penicillin/streptomycin/amphotericin B). Media and supplements for RWPE-1 were from ThermoFisher (17005075, Madrid, Spain). MCF7 cells were additionally supplemented with insulin (0.001 mg/mL in 500 mL media). Cells were kept at 37 °C (5% CO2), and culture media were renewed three times per week. When the cells reached 80–100% confluence, they were trypsinized and centrifuged, and the concentration was adjusted to each experiment. Cells were seeded at a density of ~10,000 cells/well into 24-well plates. The cells were treated with ligands 1–4 or the cytotoxic agents PhenQE8, PhenDC3 or cisplatin at different concentrations (10 nM–100 μM). Compound solutions were freshly prepared using the appropriate culture medium. Triplicate experiments were run. For MTT viability assays, after 72 h incubation, 50 μL of MTT (5 mg/mL) was added, and an additional incubation of 4 h was allowed. The medium in each well was then replaced by DMSO, and the absorbance was measured at 570 nm using an ELISA plate reader. Absorbances were normalized using negative controls (untreated cells, in triplicate, with a maximum of 0.9% DMSO content). Dose–response curves were obtained by plotting the percentage of viable cells versus logarithmic compound concentration. IC50 values were determined using Kaleidagragh^TM (3.52) software by adjusting the data to Equation 1/(1 + 10^(m2*(log(m1) − x))); m1 = 0.000003; m2 = 1.

HeLa cells (cervix) = assay: MTT viability assay HeLa; type: cell-based, human; details: 72 h
Protocol: as §1

[7] = system: HFF-1 cells (healthy fibroblasts); assay: MTT viability assay HFF-1; type: cell-based, human
Protocol: as §1

MCF-7 cells (breast) = assay: MTT viability assay MCF-7; type: cell-based, human
Protocol: as §1

[8] = system: PC-3 cells (prostate tumor); assay: MTT viability assay PC-3; type: cell-based, human; details: MTT, 72 h
Protocol: as §1

[9] = system: RWPE-1 cells (healthy prostate); assay: MTT viability assay RWPE-1; type: cell-based, human
Protocol: as §1

[10] = system: G4 Tel22 telomeric quadruplex DNA; parameters: method as in PMID 33451070; details: previously reported ref 29; cited from earlier work
Calf thymus CT DNA = details: cited from earlier work
HT29 cells (colorectal) = assay: MTT viability assay HT29; type: cell-based, human
Protocol: as §1, with “Dose–response curves were obtained by plotting the percentage of viable cells versus logarithmic compound concentration.” left out

[11] = system: telomeric G4 sequence F21T; assay: FRET-based DNA melting assay, telomeric G4 F21T; type: binding, human; details: 10 μM compound, 0.2 μM F21T, renaturing process, K+ buffer
Protocol: FRET DNA melting assays were conducted following standard reported procedures. Briefly, the employed oligonucleotides F21T (5′-FAM—(GGG TTA)3GGG—TAMRA-3′) and F10T (5′-FAM—TAT AGC TA TA/Sp18/TA GCT ATA—TAMRA-3′) were dissolved in buffer at 0.25 μM concentration and annealed by heating at 90 °C for 5 min, and then immediately cooling to 0 °C, in the case of F21T, or slowly to rt (F10T) during a period of 3 hours. The solutions were allowed to stand at 4 °C at least overnight.
Tested compounds 1–4 were dissolved in water with up to a maximum 10% DMSO (50 μM stock solution). Each stock solution was then gradually diluted to reach the final concentrations in the assay from 0 to 10 μM and a fixed 0.2 μM concentration of target sequences F21T or F10T. The buffer used for G4 sequence F21T was 10 mM KCl, 90 mM LiCl and 10 mM Li-cacodylate, pH 7.3. The buffer employed for F10T was 100 mM LiCl and 10 mM Li-cacodylate.
The melting process program consisted of an incubation step at 24 °C for 5 min and then a temperature ramp (1 °C/min rate) with fluorescence recordings at every degree up to 95 °C. Subsequently, the microplate with the samples (50 μL) was incubated for 5 min at 96 °C and then gradually cooled by using a temperature ramp of −1 °C/min, with fluorescence measurements at every degree down to 25 °C. The melting and refolding (or renaturing) curves were registered based on the change in emission of the FAM (6-carboxyfluorescein) fluorophore, excited at 492 nm and emitting at 516 nm. Melting temperature values (Tm) were determined from replicate experiments using normalized curves and considering mid-transition T1/2 temperatures.

[12] = system: PC-3, DU145, HeLa, MCF-7, HT29, HFF-1 and RWPE-1 cells; assay: MTT viability assay, whole cell panel; type: cell-based, human; details: 72 h, up to 100 μM
Protocol: A panel of five tumor cell lines and two normal cell lines was used to preliminarily test the cytotoxicity of compounds 1–4, and the experiments were conducted as previously reported. All human cell lines were acquired from American Type Culture Collection (ATCC): tumor PC-3 and DU145 (prostate), HeLa (cervix), MCF7 (breast) and HT29 (colorectal) and healthy HFF-1 (fibroblast) and RWPE-1 (prostate). The cell catalogue reference and culture media used in the experiments were CRL-1435^TM, RPMI (PC-3), HTB-81™, RPMI (DU145), CCL-2^TM, DMEM (HeLa), HTB-22^TM, DMEM (MCF-7), HTB-38^TM, modified McCoy’s 5a medium, Catalogue No. 30-2007 (HT29), SCRC-1041^TM, DMEM (HFF-1) and CRL-11609^TM, Keratinocyte-SFM (RWPE-1). Culture media were purchased from Merck: RPMI-1640, DMEM + 10% FBS (Fetal Bovine Serum) + […] (penicillin/streptomycin/amphotericin B). Media and supplements for RWPE-1 were from ThermoFisher (17005075, Madrid, Spain). […] The medium in each well was then replaced by DMSO, and the absorbance was measured at 570 nm using an ELISA plate reader. Absorbances were normalized using negative controls (untreated cells, in triplicate, with a maximum of 0.9% DMSO content). […] IC50 values were determined using Kaleidagragh^TM (3.52) software by adjusting the data to Equation 1/(1 + 10^(m2*(log(m1) − x))); m1 = 0.000003; m2 = 1.

Structure (SMILES) | ΔTm [5] | IC50 ([6]; Homo sapiens, DU-145, 72 h) | IC50 (HeLa cells (cervix); Homo sapiens, HeLa) | IC50 (MCF-7 cells (breast); Homo sapiens, MCF7, 72 h) | IC50 ([8]; Homo sapiens, PC-3, 72 h) | IC50 ([7]; Homo sapiens, HFF-1, 72 h) | IC50 ([9]; Homo sapiens, RWPE-1, 72 h) | also measured
NC(=S)N/N=C/c1ccc2ccc3ccc(/C=N/NC(N)=S)nc3c2n1 (as salt: phosphate) [compound 2, 2,2′-(1,10-Phenanthroline-2,9-diyl)-bis(methylene)-bis(hydrazine-1-carbothioamide) Hexafluorophosphate Salt] |  |  |  |  |  |  |  | melting point: > 240 °C (dec.)
C[n+]1cc(NC(=O)c2ccc3ccc4ccc(C(=O)Nc5cc6ccccc6[n+](C)c5)nc4c3n2)cc2ccccc21 [PhenDC3] |  | 7.3 ± 1 µM | > 100 µM | 2.4 ± 0.8 µM | 55.5 ± 3.1 µM | 32.2 ± 4.2 µM | 8.2 ± 1.1 µM | 
N.N.[Cl][Pt][Cl] [cisplatin] |  |  |  |  |  |  |  | IC50 ([6]; 72 h): 8.4 ± 1.5 µM; IC50 (HT29 cells (colorectal); 72 h): 86.6 ± 7 µM; IC50 (HeLa cells (cervix)): 18 ± 1.9 µM; IC50 ([7]; 72 h): 36.6 ± 4.4 µM; IC50 (MCF-7 cells (breast); 72 h): 96.5 ± 6.7 µM; IC50 [8]: 12.8 ± 0.9 µM; IC50 ([9]; 72 h): 16.4 ± 1.4 µM
C(=N\Nc1nc(-c2ccccc2)cs1)/c1ccc2ccc3ccc(/C=N/Nc4nc(-c5ccccc5)cs4)nc3c2n1 [compound 4, 2,9-bis((E)-(2-(4-Phenylthiazol-2-yl)hydrazineylidene)methyl)-1,10-phenanthroline] | ~ 3 °C | > 100 µM | > 100 µM | > 100 µM | > 100 µM | > 100 µM | > 100 µM | IC50 (HT29 cells (colorectal); Homo sapiens, HT-29, 72 h): > 100 µM; melting point: > 250 °C (dec.); ΔTm [4]: ~ 0 °C; ΔTm of telomeric G4 F21T [11]: ~ 3 °C; cytotoxicity in all cell lines tested [12]: non-cytotoxic
CC[n+]1c(-c2ccccc2)c2cc(N)ccc2c2ccc(N)cc21 [ethidium bromide] |  |  |  |  |  |  |  | viscosity slope, (η/ηo)^1/3 versus r (Calf thymus CT DNA; classical monointercalating agent ref 50, 51): ~ 1.0

The next lines start with results.

ΔTm [5] | IC50 ([6]; Homo sapiens, DU-145, 72 h) | IC50 (HeLa cells (cervix); Homo sapiens, HeLa) | IC50 (MCF-7 cells (breast); Homo sapiens, MCF7, 72 h) | IC50 ([8]; Homo sapiens, PC-3, 72 h) | Structure (SMILES) | IC50 ([7]; Homo sapiens, HFF-1, 72 h) | IC50 ([9]; Homo sapiens, RWPE-1, 72 h) | also measured
~ 12 °C |  |  |  |  | NC(=S)N/N=C/c1ccc2ccc3ccc(/C=N/NC(N)=S)nc3c2n1 [1] |  |  | binding [1]: yes; Kapp [2]: 1.1 ± 0.1 × 10^5 M^-1; Kapp [3]: 0.06 ± 0.01 × 10^5 M^-1; ΔTm [4]: ~ 0 °C
~ 15 °C |  |  |  |  | NC(=S)N/N=C/c1ccc2ccc3ccc(/C=N/NC(N)=S)nc3c2n1 [2] |  |  | 
~ 10 °C |  |  |  |  | NC(=S)N/N=C/c1ccc2ccc3ccc(/C=N/NC(N)=S)nc3c2n1 [3] |  |  | 
 | 22.7 ± 1.1 µM | 16.2 ± 1.6 µM | 44.9 ± 9.2 µM | 5.6 ± 0.3 µM | N=C(N)N/N=C/c1ccc2ccc3ccc(/C=N/NC(=N)N)nc3c2n1 [PhenQE8] | 170 ± 23.3 µM | 38.8 ± 0.5 µM | binding selectivity quadruplex/dsDNA [10]: 90 fold; viscosity slope, (η/ηo)^1/3 versus r (Calf thymus CT DNA; determined in previous studies ref 29): ca. 0.24
